Test results as given in patent US11071731B2, “Allosteric modulators of the mu opioid receptor” (Chiromics, LLC, priority 2017, dated 2021).

Assays:
[1] = biological target: T1, mu opioid receptor (MOR) (Homo sapiens, UniProt P35372); experiment: PathHunter β-arrestin recruitment assay, PAM mode with EC20 endomorphin-1; assay type: cell-based; settings: for EC50: read-out: β-arr. EC50
Procedure: The effects of MOR PAMs and MOR SAMs on receptor activity were assayed using the PathHunter enzyme complementation assay technology (DiscoveRx, CA). A description of the technology employed is as follows.
Beta-Arrestin Pathway: The PathHunter β-arrestin assay monitors the activation of a GPCR in a homogenous, non-imaging assay format using a technology developed by DiscoveRx called Enzyme Fragment Complementation (EFC) with beta-galactosidase (β-Gal) as the functional reporter. […] EA is fused to β-Arrestin and ED is fused to the GPCR of interest. When the GPCR is activated and β-arrestin is recruited to the receptor, ED and EA complementation occurs, restoring β-gal activity, which is measured using chemiluminescent PathHunter Detection Reagents.
In this manner an EC50 for each test compound, and percent maximal response for each test compound, were determined for both the β-arrestin and cAMP pathways. Though the pharmacological effects of a given signal bias can be hypothesized (Raehal et al. (2011) Pharmacol. Rev. 63:1001-1019), it is not possible to know with certainty which bias ratio will be most advantageous in a clinical setting. […] Kenakin 2015a, supra. The information associated with the compounds detailed herein is the first large data set available for the prediction of ligand bias for an MOR PAM.

[2] = biological target: T1, mu opioid receptor (MOR); experiment: Hit Hunter cAMP signaling assay (adenylyl cyclase inhibition), PAM mode with EC20 endomorphin-1; assay type: cell-based
[3] = maximal response, β-arrestin recruitment
[4] = adenylyl cyclase inhibition, read-out: cAMP EC50
[5] = maximal response, adenylyl cyclase inhibition
[6] = maximal response for β-arrestin recruitment
[7] = cAMP EC50, adenylyl cyclase inhibition
[8] = maximal response for adenylyl cyclase inhibition

T1 sequence (P35372 whole entry): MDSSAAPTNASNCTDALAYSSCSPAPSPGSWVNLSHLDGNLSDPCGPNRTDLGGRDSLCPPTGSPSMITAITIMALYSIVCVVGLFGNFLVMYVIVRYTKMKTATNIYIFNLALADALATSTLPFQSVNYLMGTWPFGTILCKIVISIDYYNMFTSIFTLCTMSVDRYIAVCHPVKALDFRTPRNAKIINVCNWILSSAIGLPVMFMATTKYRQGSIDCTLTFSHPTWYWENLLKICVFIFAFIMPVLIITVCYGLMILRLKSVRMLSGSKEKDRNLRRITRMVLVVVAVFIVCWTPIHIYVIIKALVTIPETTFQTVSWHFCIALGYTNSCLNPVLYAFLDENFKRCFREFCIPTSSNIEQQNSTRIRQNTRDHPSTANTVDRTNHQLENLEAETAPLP

Structure (SMILES)	β-arr Max. Resp. [1, 3]	EC50 ([1]; β-arrestin recruitment) [nM]	EC50 [2, 4] [nM]	cAMP Max. Resp. [2, 5]	β-arr Max. Resp. [1, 6]	EC50 [2, 7] [nM]	cAMP Max. Resp. [2, 8]	EC50 [2] [nM]
Fc1cc(C2CC(F)CN2c2nc(Cl)ncc2F)cc(C(F)(F)F)c1 (centres unmarked) [compound 468]	F (F represents a maximal response of > 60%)	> 2100	> 2100	F (F represents a maximal response of > 60%)				
Fc1cccc(C2CCCCN2Cc2cc(Cl)ccc2F)n1 (centres unmarked) [compound 171]		700 to 2100			F (F represents a maximal response of > 60%)	700 to 2100	E (E represents a maximal response of 40-60%)	
Fc1ccc(C2CCCCN2c2nc(Cl)ncc2F)cn1 (centres unmarked) [compound 297]					E (E represents a maximal response of 40-60%)		E (E represents a maximal response of 40-60%)	> 2100
Fc1cnc(Cl)nc1N1CC(C(F)(F)F)CC1c1cccc(C(F)(F)F)c1 (centres unmarked) [compound 473]	E (E represents a maximal response of 40-60%)	> 2100	> 2100	D (D represents a maximal response of < 40%)				
COc1ccc(C2CCCCN2c2ncc(C)c(Cl)n2)cc1Br (centres unmarked) [compound 236]		> 2100			F (F represents a maximal response of > 60%)	> 2100	F (F represents a maximal response of > 60%)	
Fc1c(Cl)ncnc1N1CCCCC1c1cccc(C(F)(F)F)c1 (centres unmarked) [compound 351]		< 700			D (D represents a maximal response of < 40%)	< 700	D (D represents a maximal response of < 40%)	
FC(F)(F)c1cccc(CN2CCCCC2c2cccc(C(F)(F)F)n2)c1 (centres unmarked) [compound 175]		> 2100			F (F represents a maximal response of > 60%)	> 2100	E (E represents a maximal response of 40-60%)	
FC(F)(F)c1cccc(C2CCCCN2c2ccnc(Cl)c2)c1 (centres unmarked) [compound 359]		< 700			D (D represents a maximal response of < 40%)	< 700	D (D represents a maximal response of < 40%)	
COc1ccc(C2CCCCN2c2cncc(C(F)(F)F)n2)cc1Br (centres unmarked) [compound 230]		> 2100			F (F represents a maximal response of > 60%)	> 2100	F (F represents a maximal response of > 60%)	
Fc1cnc(Cl)nc1N1CCCCC1c1cccnc1F (centres unmarked) [compound 335]		< 700			D (D represents a maximal response of < 40%)	< 700	D (D represents a maximal response of < 40%)	
[O-][S+]1CCN(c2nc(Cl)ncc2F)C(c2cc(F)cc(C(F)(F)F)c2)C1 (mixture of isomers) [Compound 302]		> 2100	> 2100		E (E represents a maximal response of 40-60%)		D (D represents a maximal response of < 40%)	
Cc1cccc(S(=O)(=O)N2CCCCC2c2cccc(C(F)(F)F)c2)c1 (centres unmarked) [Compound 27]		> 2100	> 2100		F (F represents a maximal response of > 60%)		E (E represents a maximal response of 40-60%)	
Fc1cc(C2CSCCN2c2nc(Cl)ncc2F)cc(C(F)(F)F)c1 (racemic) [Compound 301]		700 to 2100	< 700		F (F represents a maximal response of > 60%)		E (E represents a maximal response of 40-60%)	
Fc1ccc(C2COCCN2Cc2cc(Cl)ccc2F)cc1Cl (racemic) [Compound 194]		700 to 2100	700 to 2100		F (F represents a maximal response of > 60%)		D (D represents a maximal response of < 40%)	
O=C1CCN(c2nc(Cl)ncc2F)C(c2cccc(C(F)(F)F)c2)C1 (centres unmarked) [compound 239]		> 2100			E (E represents a maximal response of 40-60%)	> 2100	D (D represents a maximal response of < 40%)	
COc1cc(C2CCCCN2c2nc(Cl)ncc2F)ccn1 (centres unmarked) [compound 275]		> 2100			D (D represents a maximal response of < 40%)	> 2100	D (D represents a maximal response of < 40%)	
COc1ccc(C2CCCCN2c2cncc(Cl)n2)cc1Br (centres unmarked) [compound 229]		> 2100			F (F represents a maximal response of > 60%)	> 2100	F (F represents a maximal response of > 60%)	
OC1CN(c2ncc(F)c(N3CCCCC3c3cccc(C(F)(F)F)c3)n2)C1 (centres unmarked) [compound 256]		> 2100			D (D represents a maximal response of < 40%)	> 2100	D (D represents a maximal response of < 40%)	
O=S(=O)(c1cccc(Cl)c1)N1CCCC(F)C1c1ccc(F)c(Br)c1 (centres unmarked) [Compound 32]		> 2100	> 2100					
O=S(=O)(Cc1ccccc1Cl)N1C2CCC(C2)C1c1ccc(F)c(Br)c1 (centres unmarked) [Compound 183]		> 2100	> 2100		E (E represents a maximal response of 40-60%)		D (D represents a maximal response of < 40%)	
Fc1cccc(CN2CCCCC2c2cccc(C(F)(F)F)n2)c1 (centres unmarked) [compound 152]		> 2100			F (F represents a maximal response of > 60%)	700 to 2100	E (E represents a maximal response of 40-60%)	
O=S(=O)(c1ccc(Cl)cc1)N1CCCCC1c1ccc(Cl)c(C(F)(F)F)c1 (racemic) [compound 64]		700 to 2100	700 to 2100		F (F represents a maximal response of > 60%)		D (D represents a maximal response of < 40%)	
COc1ccc(C2CC(C(F)(F)F)CN2S(=O)(=O)c2ccc(Cl)cc2)cc1Br (single isomer, unassigned) [Compound 119]		> 2100	> 2100		E (E represents a maximal response of 40-60%)		D (D represents a maximal response of < 40%)	
Fc1cnc(Cl)nc1N1CC(F)(F)CC1c1cccc(C(F)(F)F)c1 (centres unmarked) [compound 467]	F (F represents a maximal response of > 60%)	> 2100	> 2100	D (D represents a maximal response of < 40%)				
O=S(=O)(c1ccc(Cl)cc1)N1CCCCC1c1ccc(F)cc1 (racemic) [compound 78]		700 to 2100	< 700		F (F represents a maximal response of > 60%)		E (E represents a maximal response of 40-60%)	
Fc1cnc(Cl)nc1N1CCCCC1c1ccc2cncn2c1 (centres unmarked) [compound 334]		< 700			D (D represents a maximal response of < 40%)	< 700	D (D represents a maximal response of < 40%)	
Fc1ccc(C2CCCCN2c2nc(Cl)ncc2F)cc1Cl (single isomer, unassigned) [compound 11]		< 700			F (F represents a maximal response of > 60%)		E (E represents a maximal response of 40-60%)	
